Data published in ChEMBL document CHEMBL3992552, “Mechanisms of action and structure-activity relationships of cytotoxic flavokawain derivatives” (Bioorg Med Chem, 2017).
The source made the active and inactive calls. The rule behind the calls is not given here.

How the values were obtained:
Caco-2 [1] = experiment: Cytotoxicity against human Caco2 cells assessed as cell viability after 48 hrs by Hoechst 33342 staining based assay; format: functional; conditions: Caco-2, 48 h
[2] = Cytotoxicity against human fibroblasts assessed as cell survival at 50 uM after 48 hrs by Hoechst 33342 staining based assay relative to control; design: species or system Fibroblast; conditions: read-out: Survival
[3] = Selectivity index, ratio of IC50 for human fibroblasts to IC50 for human PC3 cells
HCT-116 [4] = experiment: Cytotoxicity against human HCT116 cells assessed as cell survival at 50 uM after 48 hrs by Hoechst 33342 staining based assay relative to control; format: functional; conditions: HCT-116, 48 h, read-out: Survival
Caco-2 [5] = experiment: Cell cycle arrest in human Caco2 cells assessed as accumulation at S phase at 25 uM measured after 48 hrs by Hoechst/BrdU staining based fluorescence assay (reference value: […]); format: functional
HCT-116 [6] = experiment: Cell cycle arrest in human HCT116 cells assessed as accumulation at G1/S phase by Hoechst staining based fluorescence assay; format: functional
PC-3 [7] = experiment: Induction of apoptosis in human PC3 cells harboring p53 mutant assessed as increase in late apoptosis at 2 times IC50 after 48 hrs by YoPro/propidium iodide/Hoechst staining based assay; format: functional, cell-based
NCI-H727 [8] = experiment: Cytotoxicity against human NCI-H727 cells assessed as cell survival at 50 uM after 48 hrs by Hoechst 33342 staining based assay relative to control; format: functional; conditions: NCI-H727, 48 h, read-out: Survival
MDA-MB-231 [9] = experiment: Cytotoxicity against human MDA-MB-231 cells assessed as cell viability after 48 hrs by Hoechst 33342 staining based assay; format: functional; conditions: MDA-MB-231, 48 h
Huh-7 [10] = experiment: Cell cycle arrest in human HuH7 cells assessed as accumulation at S phase at 25 uM measured after 48 hrs by Hoechst/BrdU staining based fluorescence assay (reference value: 44%); format: functional
Huh-7 [11] = experiment: Cell cycle arrest in human HuH7 cells assessed as accumulation at S phase at 10 uM measured after 48 hrs by Hoechst/BrdU staining based fluorescence assay (reference value: 44%); format: functional
[12] = Selectivity index, ratio of IC50 for human fibroblasts to IC50 for human HCT116 cells
Huh-7 [13] = experiment: Cytotoxicity against human HuH7 cells assessed as cell survival at 50 uM after 48 hrs by Hoechst 33342 staining based assay relative to control; format: functional; conditions: Huh-7, 48 h, read-out: Survival
MDA-MB-231 [14] = experiment: Induction of apoptosis in human MDA-MB-231 cells harboring p53 mutant assessed as increase in late apoptosis at 2 times IC50 after 24 hrs by YoPro/propidium iodide/Hoechst staining based assay; format: functional, cell-based
HCT-116 [15] = experiment: Cytotoxicity against human HCT116 cells assessed as cell viability after 48 hrs by Hoechst 33342 staining based assay; format: functional; conditions: HCT-116, 48 h
Caco-2 [16] = experiment: Cell cycle arrest in human Caco2 cells assessed as mitotic index at 25 uM measured after 48 hrs by Hoechst staining based fluorescence assay (reference value: 3.6); format: functional
[17] = Selectivity index, ratio of IC50 for human fibroblasts to IC50 for human NCI-H727 cells
[18] = Selectivity index, ratio of IC50 for human fibroblasts to IC50 for human RL cells
MCF7 [19] = experiment: Induction of apoptosis in human MCF7 cells harboring wild-type p53 assessed as upregulation of cyclinB1 measured after 18 hrs by Hoechst staining based assay; format: functional, cell-based
Caco-2 [20] = experiment: Cytotoxicity against human Caco2 cells assessed as cell survival at 50 uM after 48 hrs by Hoechst 33342 staining based assay relative to control; format: functional; conditions: Caco-2, 48 h, read-out: Survival
HaCaT [21] = experiment: Cytotoxicity against human HaCaT cells assessed as cell viability after 48 hrs by Hoechst 33342 staining based assay; format: functional
MDA-MB-231 [22] = experiment: Induction of apoptosis in human MDA-MB-231 cells harboring p53 mutant assessed as increase in early apoptosis at 2 times IC50 after 24 hrs by YoPro/propidium iodide/Hoechst staining based assay; format: functional, cell-based
[23] = Selectivity index, ratio of IC50 for human fibroblasts to IC50 for human HaCaT cells
HaCaT [24] = experiment: Cytotoxicity against human HaCaT cells assessed as cell survival at 50 uM after 48 hrs by Hoechst 33342 staining based assay relative to control; format: functional; conditions: read-out: Survival
NCI-H727 [25] = experiment: Cell cycle arrest in human NCI-H727 cells harboring p53 mutant assessed as accumulation at S phase at 25 uM measured after 48 hrs by Hoechst/BrdU staining based fluorescence assay (reference value: 40.3%); format: functional
HCT-116 [26] = experiment: Induction of apoptosis in human HCT116 cells harboring wild-type p53 assessed as increase in early apoptosis at 2 times IC50 after 48 hrs by YoPro/propidium iodide/Hoechst staining based assay; format: functional, cell-based
Caco-2 [27] = experiment: Cell cycle arrest in human Caco2 cells assessed as mitotic index at 10 uM measured after 48 hrs by Hoechst staining based fluorescence assay (reference value: 3.6); format: functional
HCT-116 [28] = experiment: Induction of apoptosis in human HCT116 cells harboring wild-type p53 assessed as increase in cleaved caspase3 at 2 times IC50 after 48 hrs by Hoechst staining based assay; format: functional, cell-based
PC-3 [29] = experiment: Cell cycle arrest in human PC3 cells harboring p53 mutant assessed as accumulation at S phase at 10 uM measured after 48 hrs by Hoechst/BrdU staining based fluorescence assay (reference value: 40.8%); format: functional
MDA-MB-231 [30] = experiment: Cell cycle arrest in human MDA-MB-231 cells assessed as accumulation at M phase by Hoechst staining based fluorescence assay; format: functional
NCI-H727 [31] = experiment: Cell cycle arrest in human NCI-H727 cells harboring p53 mutant assessed as mitotic index at 25 uM measured after 48 hrs by Hoechst staining based fluorescence assay (reference value: 1.1); format: functional
MCF7 [32] = experiment: Induction of apoptosis in human MCF7 cells harboring wild-type p53 assessed as increase in early apoptosis at 2 times IC50 after 24 hrs by YoPro/propidium iodide/Hoechst staining based assay; format: functional, cell-based
MDA-MB-231 [33] = experiment: Cell cycle arrest in human MDA-MB-231 cells harboring p53 mutant assessed as accumulation at S phase at 10 uM measured after 48 hrs by Hoechst/BrdU staining based fluorescence assay (reference value: 42.2%); format: functional
HaCaT [34] = experiment: Cell cycle arrest in human HaCaT cells harboring […] p53 assessed as accumulation at S phase at 10 uM measured after 48 hrs by Hoechst/BrdU staining based fluorescence assay (reference value: 52.3%); format: functional
NCI-H727 [35] = experiment: Cytotoxicity against human NCI-H727 cells assessed as cell viability after 48 hrs by Hoechst 33342 staining based assay; format: functional; conditions: NCI-H727, 48 h
PC-3 [36] = experiment: Cytotoxicity against human PC3 cells assessed as cell survival at 50 uM after 48 hrs by Hoechst 33342 staining based assay relative to control; format: functional; conditions: PC-3, 48 h, read-out: Survival
HCT-116 [37] = experiment: Cell cycle arrest in human HCT116 cells harboring wild-type p53 assessed as mitotic index at 10 uM measured after 48 hrs by Hoechst staining based fluorescence assay (reference value: 2.3); format: functional
MCF7 [38] = experiment: Cytotoxicity against human MCF7 assessed as cell viability after 48 hrs by Hoechst 33342 staining based assay; format: functional; conditions: MCF7, 48 h

COc1cc(O)c(C(=O)/C=C/c2ccccc2)c(OC)c1 [FLAVOKAWAIN B]
IC50 (Caco-2 [1]): 9.9 µM | viability at 48 h, 50 µM [2]: 32% | Ratio IC50 [3]: 2.9 | viability at 50 µM (HCT-116 [4]): 0% | Activity (Caco-2 [5]): 40% | Activity (HCT-116 [6]): Active | Activity (PC-3 [7]): Active | viability at 50 µM (NCI-H727 [8]): 2% | IC50 (MDA-MB-231 [9]): 16.3 µM | Activity (Huh-7 [10]): 30% | Activity (Huh-7 [11]): 55% | Ratio IC50 [12]: 3.5 | viability at 50 µM (Huh-7 [13]): 10% | Activity (MDA-MB-231 [14]): Active | IC50 (HCT-116 [15]): 7.5 µM | Activity_index (Caco-2 [16]): 19.3 | Ratio IC50 [17]: 2.3 | Ratio IC50 [18]: 3.2 | Activity (MCF7 [19]): Active | viability at 50 µM (Caco-2 [20]): 1% | IC50 (HaCaT [21]): 13.6 µM | Activity (MDA-MB-231 [22]): Active | Ratio IC50 [23]: 1.9 | viability at 50 µM (HaCaT [24]): 7% | Activity (NCI-H727 [25]): 7% | Activity (HCT-116 [26]): Active | Activity_index (Caco-2 [27]): 9.7 | Activity (HCT-116 [28]): Active | Activity (PC-3 [29]): 35% | Activity (MDA-MB-231 [30]): Active | Activity_index (NCI-H727 [31]): 0.2 | Activity (MCF7 [32]): Active | Activity (MDA-MB-231 [33]): 54% | Activity (HaCaT [34]): 50% | IC50 (NCI-H727 [35]): 11.3 µM | viability at 50 µM (PC-3 [36]): 27% | Activity_index (HCT-116 [37]): 1.1 | IC50 (MCF7 [38]): 15.5 µM

COc1cc(OC)c(C(=O)/C=C/c2ccc(Br)cc2)c(OC)c1
IC50 (Caco-2 [1]): 6.8 µM | viability at 48 h, 50 µM [2]: 57% | Ratio IC50 [3]: >7 | viability at 50 µM (HCT-116 [4]): 0% | Activity (Caco-2 [5]): 1.9% | Activity (HCT-116 [6]): Active | Activity (PC-3 [7]): Active | viability at 50 µM (NCI-H727 [8]): 2% | IC50 (MDA-MB-231 [9]): 11.1 µM | Activity (Huh-7 [10]): 0.2% | Activity (Huh-7 [11]): 46% | Ratio IC50 [12]: >8.1 | viability at 50 µM (Huh-7 [13]): 3% | Activity (MDA-MB-231 [14]): Active | IC50 (HCT-116 [15]): 6.2 µM | Activity_index (Caco-2 [16]): 1.4 | Ratio IC50 [17]: >4.4 | Ratio IC50 [18]: >6 | Activity (MCF7 [19]): Active | viability at 50 µM (Caco-2 [20]): 0% | IC50 (HaCaT [21]): 9 µM | Activity (MDA-MB-231 [22]): Active | Ratio IC50 [23]: >5.6 | viability at 50 µM (HaCaT [24]): 6% | Activity (NCI-H727 [25]): 6% | Activity (HCT-116 [26]): Active | Activity_index (Caco-2 [27]): 30.7 | Activity (HCT-116 [28]): Active | Activity (PC-3 [29]): 35% | Activity (MDA-MB-231 [30]): Active | Activity_index (NCI-H727 [31]): 0.7 | Activity (MCF7 [32]): Active | Activity (MDA-MB-231 [33]): 42% | Activity (HaCaT [34]): 24% | IC50 (NCI-H727 [35]): 11.3 µM | viability at 50 µM (PC-3 [36]): 10% | Activity_index (HCT-116 [37]): 2.8 | IC50 (MCF7 [38]): 9.5 µM
